Laboratory results published in patent US20220313656A1, “NEW CLASS OF ANTIBIOTICS HAVING LOW MIC-VALUES TOWARDS DIFFERENT STRAINS OF BACTERIA” (priority 2019, published 2022).
Like-named read-outs stand apart in the source and are kept apart here.

Assays:
Experiment in all cases: MIC, serial dilution method (CLSI)
E. coli APEC O2 = type: cell-based, Escherichia coli
Procedure: (§1) These inoculums were each in diluted 1:100 in Müller Hinton (MH) broth (Sigma, Copenhagen, Denmark). From the diluted inoculums 100 μl was transferred to each well in a 96-well plate and mixed with the compound to be MIC determined. The plate was incubated for 24 hours at 37° C. (without shaking). The MIC value was determined as the lowest concentration in which no bacterial growth could be visually detected. All MIC determinations were done in duplicates. […] Since all derivatives are new, no control strains (with reference MIC values) were available.

E. faecium = type: cell-based, Enterococcus faecium
Procedure: as §1

Streptococcus equi = type: cell-based
Procedure: as §1

Bacillus cereus = type: cell-based
Procedure: as §1

Salmonella enteritidis = type: cell-based
Procedure: as §1

Listeria monocytogenes = type: cell-based
Procedure: as §1

E. faecalis = type: cell-based, Enterococcus faecalis
Procedure: as §1

S. aureus USA300 = type: cell-based, Staphylococcus aureus
Procedure: as §1

S. aureus CC398 = type: cell-based, Staphylococcus aureus
Procedure: as §1

[1] = system: Staphylococus pseudintermedius; type: cell-based, Staphylococcus pseudintermedius
Procedure: as §1

[2] = Escherichia coli, APECO2, 24 h, read-out: MIC
[3] = Enterococcus faecium, 24 h, read-out: MIC
[4] = Salmonella enterica, ENTERITIDIS, 24 h, read-out: MIC
[5] = Enterococcus faecalis, 24 h, read-out: MIC
[6] = Staphylococcus aureus, USA300, 24 h, read-out: MIC
[7] = Staphylococcus aureus, MRSA, 24 h, read-out: MIC
[8] = Staphylococcus pseudintermedius, 24 h, read-out: MIC
[9] = E. coli APEC O2, MH broth, 24 hours at 37° C., set to 256 if growth at […]
[10] = E. faecium, MH broth, 24 hours at 37° C., set to 256 if growth at […]
[11] = MH broth, 24 hours at 37° C., set to 256 if growth at […]
[12] = Salmonella enteritidis, MH broth, 24 hours at 37° C., set to 256 if growth at […]
[13] = E. faecalis, MH broth, 24 hours at 37° C., set to 256 if growth at […]
[14] = S. aureus USA300, MH broth, 24 hours at 37° C., set to 256 if growth at […]
[15] = S. aureus CC398 (MRSA strain), MH broth, 24 hours at 37° C., set to 256 if growth at […]
[16] = Staphylococus pseudintermedius, MH broth, 24 hours at 37° C., set to 256 if growth at […]

Structure (SMILES) | MIC (E. coli APEC O2; [2]) [mg/L] | MIC (E. faecium; [3]) [mg/L] | MIC (Streptococcus equi; 24 h, read-out: MIC) [mg/L] | MIC (Bacillus cereus; 24 h, read-out: MIC) [mg/L] | MIC (Salmonella enteritidis; [4]) [mg/L] | MIC (Listeria monocytogenes; 24 h, read-out: MIC) [mg/L] | MIC (E. faecalis; [5]) [mg/L] | MIC (S. aureus USA300; [6]) [mg/L] | MIC (S. aureus CC398; [7]) [mg/L] | MIC [1, 8] [mg/L] | MIC (E. coli APEC O2; [9]) [mg/L] | MIC (E. faecium; [10]) [mg/L] | MIC (Streptococcus equi; [11]) [mg/L] | MIC (Bacillus cereus; [11]) [mg/L] | MIC (Salmonella enteritidis; [12]) [mg/L] | MIC (Listeria monocytogenes; [11]) [mg/L] | MIC (E. faecalis; [13]) [mg/L] | MIC (S. aureus USA300; [14]) [mg/L] | MIC (S. aureus CC398; [15]) [mg/L] | MIC [1, 16] [mg/L]
COC(=O)CCCCC[N+](C)(C)CCC=C1c2ccccc2Sc2ccc(Cl)cc21 [Chlorprothixene 6-Methoxy-6-oxo-1-hexyl] | – | – | – | – | – | – | – | – | – | – | 128 | 64 | 8 | 8 | 128 | 8 | 128 | 8 | 8 | 8
C[N+](C)(C)CCCN1c2ccccc2Sc2ccc(Cl)cc21.[I-] [Compound S2, 3-(2-chloro-10H-phenothiazin-10-yl)-N,N,N-trimethylpropan-1-aminium iodide] | 256 | 32 | 16 | 32 | 256 | 64 | 128 | 32 | 32 | 8 | – | – | – | – | – | – | – | – | – | –
C[N+](C)(CCC=C1c2ccccc2Sc2ccc(Cl)cc21)Cc1ccccc1 [Chlorprothixene Benzyl] | – | – | – | – | – | – | – | – | – | – | 64 | 16 | 2 | 16 | 64 | 32 | 16 | 4 | 2 | 2
C=CC[N+](C)(C)CCCN1c2ccccc2Sc2ccc(Cl)cc21.[Br-] [Compound S40, N-(3-(2-chloro-10H-phenothiazin-10-yl)propyl)-N,N-dimethylprop-2-en-1-aminium bromide] | 256 | 64 | 8 | 64 | 128 | 32 | 64 | 16 | 16 | 8 | – | – | – | – | – | – | – | – | – | –

More lines, in order of falling MIC (E. coli APEC O2; [2]), values ahead:

MIC (E. coli APEC O2; [2]) [mg/L] | MIC (E. faecium; [3]) [mg/L] | MIC (Streptococcus equi; 24 h, read-out: MIC) [mg/L] | MIC (Bacillus cereus; 24 h, read-out: MIC) [mg/L] | MIC (Salmonella enteritidis; [4]) [mg/L] | MIC (Listeria monocytogenes; 24 h, read-out: MIC) [mg/L] | MIC (E. faecalis; [5]) [mg/L] | MIC (S. aureus USA300; [6]) [mg/L] | MIC (S. aureus CC398; [7]) [mg/L] | MIC [1, 8] [mg/L] | MIC (E. coli APEC O2; [9]) [mg/L] | MIC (E. faecium; [10]) [mg/L] | MIC (Streptococcus equi; [11]) [mg/L] | MIC (Bacillus cereus; [11]) [mg/L] | MIC (Salmonella enteritidis; [12]) [mg/L] | MIC (Listeria monocytogenes; [11]) [mg/L] | MIC (E. faecalis; [13]) [mg/L] | MIC (S. aureus USA300; [14]) [mg/L] | MIC (S. aureus CC398; [15]) [mg/L] | MIC [1, 16] [mg/L] | Structure (SMILES)
256 | 128 | 256 | 64 | 256 | 128 | 128 | 32 | 32 | 32 | – | – | – | – | – | – | – | – | – | – | CC[N+](C)(C)CC/C=C1/c2ccccc2Sc2ccc(Cl)cc21.[Br-] [Compound S36, (Z)-3-(2-chloro-9H-thioxanthen-9-ylidene)-N-ethyl-N,N-dimethylpropan-1-aminium bromide]
256 | 16 | 4 | 64 | 128 | 32 | 16 | 4 | 4 | 4 | – | – | – | – | – | – | – | – | – | – | C=CC[N+]1(C)CCCCC1CCN1c2ccccc2Sc2ccc(SC)cc21.[Br-] (stereo not drawn) [Compound S42, 1-allyl-1-methyl-2-(2-(2-(methylthio)-10H-phenothiazin-10-yl)ethyl)piperidin-1-ium bromide]
128 | 256 | 64 | 256 | 256 | 128 | 128 | 128 | 128 | 64 | – | – | – | – | – | – | – | – | – | – | CC(CN1c2ccccc2Sc2ccccc21)N(C)C.Cl (stereo not drawn) [Compound S12, N,N-dimethyl-1-(10H-phenothiazin-10-yl)propan-2-amine hydrochloride, reference compound]
64 | 32 | 256 | 64 | 128 | 32 | 32 | 32 | 32 | 32 | – | – | – | – | – | – | – | – | – | – | CN(C)CC/C=C1/c2ccccc2Sc2ccc(Cl)cc21.Cl [Compound S34, (Z)-3-(2-chloro-9H-thioxanthen-9-ylidene)-N,N-dimethylpropan-1-amine hydrochloride, reference compound]
64 | 16 | 4 | 8 | 64 | 8 | 32 | 8 | 32 | 4 | – | – | – | – | – | – | – | – | – | – | CCCCC[N+](C)(C)C(C)CN1c2ccccc2Sc2ccccc21.[Br-] (stereo not drawn) [Compound S17, N-(1-(10H-phenothiazin-10-yl)propan-2-yl)-N,N-dimethylpentan-1-aminium bromide]
